Common to all, as to assay type: in vivo
The test system of series [1] is NOD/DQ8 mice. Put plainly: Gut barrier function by Ussing chamber technique (jejunum). The note with it: gluten treated NOD/DQ8 mice, 1 μg/mouse i.p. at day 1, 10, 20 and 30, vs vehicle (DMSO). On the procedure:
Gut barrier function was assessed by a Ussing chamber technique. Briefly, sections of jejunum from each mouse were mounted in a Ussing Chamber with an opening of 0.6 cm^2. Net active transport across the epithelium was measured via a short circuit current response (Isc, μA) injected through the tissue under voltage-clamp conditions. Baseline Isc (μA/cm^2) was recorded at equilibrium 20 min after mounting jejunum sections. Mucosal-to-serosal transport of macromolecules was assessed by adding ^51Cr-EDTA in the luminal side of the chamber. ^51Cr-EDTA fluxes were calculated by measuring the proportion of radioactive ^51Cr-EDTA detected in the serosal side of the chamber after 2 hours compared to the radioactive ^51Cr-EDTA placed in the luminal side at the beginning of experiment.

Series [2] concerns NOD/DQ8 mice. Put plainly: Fecal lipocalin-2 quantification. The note with it: gluten treated NOD/DQ8 mice; 1 μg/mouse i.p. at day 1, 10, 20 and 30; vs vehicle (DMSO).
Series [3] deals with NOD/DQ8 mice. Put plainly: Histology and immunohistochemistry of proximal small intestine (V/C ratios, CD3+ IEL counts). The conditions noted are these: gluten treated NOD/DQ8 mice; 1 μg/mouse i.p. at day 1, 10, 20 and 30; vs vehicle (DMSO). On the procedure: For histology and immunohistochemistry studies, cross-sections of the proximal small intestine were fixed in 10% formalin and embedded in paraffin. Enteropathy was determined by measuring villus-to-crypt (V/C) ratios in a blinded fashion. The presence of IELs (intraepithelial lymphocytes) in the sections was determined by immunostaining for CD3+ cells. Briefly, sections were stained with polyclonal rabbit anti-mouse CD3 (Dako) and in each section, and intraepithelial lymphocytosis was determined by counting CD3+ IELs per 20 enterocytes in five randomly chosen villus tips.

For another series, the system named is AhR pathway genes. Put plainly: qPCR expression of AhR pathway and inflammation genes in duodenum. The note with it: gluten treated NOD/DQ8 mice; 1 μg/mouse i.p. at day 1, 10, 20 and 30; vs vehicle (DMSO). On the procedure: AhR activation in duodenal biopsies was measured through qPCR to assess the expression of AhR pathway genes: AhR, CYP1A1, IL-22 and IL-17. IL-15 gene expression was also measured by qPCR as an inflammation marker. Total RNA was isolated from mouse duodenum samples using RNeasy Mini Kit (Qiagen, Hilden, Germany) with the DNase treatment, according to the manufacturer's instructions. RNA concentration was determined using a NanoDrop spectrophotometer […]. Quantitative RT-PCR was performed using iScript Reverse Transcriptase (Bio-Rad) and then a SsoFast EvaGreen Supermix (Bio-Rad) in a Mastercycler ep realplex apparatus (Eppendorf) with specific mouse oligonucleotides. Additional information on the primers used is available in Table 2. qPCR data were analyzed using the 2-ΔΔCt quantification method with mouse Gapdh as the endogenous control.

In the case of `O=Cc1c2c(cc3c1=Nc1ccccc1-3)=Nc1ccccc1-2` [Ficz, 6-formylindolo(3,2-b) carbazole], the paracellular permeability entry in the series on NOD/DQ8 mice [1] (51Cr-EDTA) is “improved”. Further, the ion transport entry in the series on NOD/DQ8 mice [1] is “improved”. Also, the “other markers of overall gut inflammation (fecal lipocalin-2, FIG. 17)” value with NOD/DQ8 mice [2] was “improved”. Further, in the series with NOD/DQ8 mice [3], the IEL counts entry is on record as “improved” and the V/C ratios entry is “improved”. Further, in the series on AhR pathway genes, the “intestinal IL-15 expression” value is “did not affect” and the “intestinal expression of AhR target genes (Cyp1a1, Il22, Il17)” value is “even higher expression”.

Source of the values: US20220143143A1, “USE OF ACTIVATORS OF THE ARYL HYDROCARBON RECEPTOR FOR TREATING GLUTEN-INDUCED GASTROINTESTINAL DISEASES” (McMaster University, priority 2019, published 2022).
